From patent US9833497B2, “Human originated EGF domain proteins and use of the same” (CHENGDU SOURCEBIO LIMITED-LIABILITY COMPANY, priority 2013, dated 2017)

Key:
Format in all cases: cell-based
[1] = tested on: Serratia marcescens; test: MIC against Gram-negative bacteria: Serratia marcescens; conditions: for MIC S. marcescens / MIC against S. marcescens: 5×10^5 CFU/mL
Method in brief: (§1)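 Broth microdilution, LB medium, final inoculum 5×10^5 CFU/mL from McFarland 0.5 cultures. Recombinant human EGF domain proteins tested in two-fold steps, n=3. MIC: lowest concentration, no growth.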

[2] = tested on: Klebsiella pneumonia; test: MIC against Gram-negative bacteria: Klebsiella pneumonia; conditions: for MIC K. pneumonia / MIC against K. pneumonia: 5×10^5 CFU/mL
Method in brief: as §1

[3] = tested on: Enterobacter cloacae; test: MIC against Gram-negative bacteria: Enterobacter cloacae; conditions: for MIC E. cloacae / MIC against E. cloacae: 5×10^5 CFU/mL
Method in brief: as §1

[4] = tested on: Moraxella catarrhalis; test: MIC against Gram-negative bacteria: Moraxella catarrhalis; conditions: for MIC M. catarrhalis / MIC against M. catarrhalis: 5×10^5 CFU/mL
Method in brief: as §1

[5] = tested on: E. coli BL21; test: MIC against Gram-negative bacteria: E. coli BL21; conditions: for MIC E. coli BL21 / MIC against E. coli BL21: 5×10^5 CFU/mL
Method in brief: as §1

[6] = tested on: Citrobacter diversus; test: MIC against Gram-negative bacteria: Citrobacter diversus; conditions: for MIC C. diversus / MIC against C. diversus: 5×10^5 CFU/mL
Method in brief: as §1

[7] = tested on: Proteus mirabilis; test: MIC against Gram-negative bacteria: Proteus mirabilis; conditions: for MIC P. mirabilis / MIC against P. mirabilis: 5×10^5 CFU/mL
Method in brief: as §1

[8] = tested on: Proteus vulgaris; test: MIC against Gram-negative bacteria: Proteus vulgaris; conditions: for MIC P. vulgaris / MIC against P. vulgaris: 5×10^5 CFU/mL
Method in brief: as §1

[9] = tested on: Aeromonas hydrophila; test: MIC against Gram-negative bacteria: Aeromonas hydrophila; conditions: for MIC A. hydrophila / MIC against A. hydrophila: 5×10^5 CFU/mL
Method in brief: as §1

[10] = tested on: Pseudomonas aeruginosa; test: MIC against Gram-negative bacteria: Pseudomonas aeruginosa; conditions: for MIC P. aeruginosa / MIC against P. aeruginosa: 5×10^5 CFU/mL
Method in brief: as §1

[11] = tested on: E. coli DH5α; test: Antibacterial activity: MIC and growth curve against E. coli DH5α in 96-well plate; conditions: minimal inhibitory concentration against E. coli DH5α; 96-well plate, 5×10^5 CFU/mL, 37° C., judged after 8 h
Method in brief: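 Log-phase DH5α (OD600 about 0.5, 37° C, 185 rpm in LB) was pelleted, resuspended in fresh LB and seeded at 5×10^5 CFU/mL with recombinant protein at 50, 25 and 12.5 μg/mL (two-fold series), in triplicate. Plates were shaken at 175 rpm, 37° C, and OD600 was read every 30 min. MIC was the lowest concentration with no growth.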

[12] = 10 h cultivation at 37° C., two-fold serial dilution

Substance | MIC [11] | MIC S. marcescens [1, 12] | MIC K. pneumonia [2, 12] | MIC E. cloacae [3, 12] | MIC M. catarrhalis [4, 12] | MIC E. coli BL21 [5, 12] | MIC C. diversus [6, 12] | MIC P. mirabilis [7, 12] | MIC P. vulgaris [8, 12] | MIC A. hydrophila [9, 12] | MIC P. aeruginosa [10, 12] | MIC against S. marcescens ([1]; 96-well plate, 37° C., 10 h) | MIC against K. pneumonia ([2]; 96-well plate, 37° C., 10 h) | MIC against E. cloacae ([3]; 96-well plate, 37° C., 10 h) | MIC against M. catarrhalis ([4]; 96-well plate, 37° C., 10 h) | MIC against E. coli BL21 ([5]; 96-well plate, 37° C., 10 h) | MIC against C. diversus ([6]; 96-well plate, 37° C., 10 h) | MIC against P. mirabilis ([7]; 96-well plate, 37° C., 10 h) | MIC against P. vulgaris ([8]; 96-well plate, 37° C., 10 h) | MIC against A. hydrophila ([9]; 96-well plate, 37° C., 10 h) | further results
PRT653 (DVDECEDPQSSCLGGECKNTVGSYQCLCPQGFQLANGTVCE; listed as Homo sapiens) | 25 µg/mL | – | – | – | – | – | – | – | – | – | – | – | – | – | – | – | – | – | – | – | MIC S. marcescens ([1]; 96-well plate, 37° C., 10 h): 25 µg/mL; MIC K. pneumonia ([2]; 96-well plate, 37° C., 10 h): 50 µg/mL; MIC E. cloacae ([3]; 96-well plate, 37° C., 10 h): 25 µg/mL; MIC M. catarrhalis ([4]; 96-well plate, 37° C., 10 h): 25 µg/mL; MIC E. coli BL21 ([5]; 96-well plate, 37° C., 10 h): 12.5 µg/mL; MIC C. diversus ([6]; 96-well plate, 37° C., 10 h): 50 µg/mL; MIC P. mirabilis ([7]; 96-well plate, 37° C., 10 h): 12.5 µg/mL; MIC P. vulgaris ([8]; 96-well plate, 37° C., 10 h): 50 µg/mL; MIC A. hydrophila ([9]; 96-well plate, 37° C., 10 h): 12.5 µg/mL; MIC P. aeruginosa ([10]; 96-well plate, 37° C., 10 h): 25 µg/mL
PRT919 (NIDDCPGNNCKNGGACVDGVNTYNCRCPPEWTGQYCT; listed as Homo sapiens) | 50 µg/mL | – | – | – | – | – | – | – | – | – | – | – | – | – | – | – | – | – | – | – | MIC ([1]; S. marcescens, 10 h cultivation at 37° C.): 50 µg/mL; MIC ([2]; K. pneumonia, 10 h cultivation at 37° C.): 12.5 µg/mL; MIC ([3]; E. cloacae, 10 h cultivation at 37° C.): 25 µg/mL; MIC ([4]; M. catarrhalis, 10 h cultivation at 37° C.): 12.5 µg/mL; MIC ([5]; E. coli BL21, 10 h cultivation at 37° C.): 12.5 µg/mL; MIC ([6]; C. diversus, 10 h cultivation at 37° C.): 25 µg/mL; MIC ([7]; P. mirabilis, 10 h cultivation at 37° C.): 25 µg/mL; MIC ([8]; P. vulgaris, 10 h cultivation at 37° C.): 25 µg/mL; MIC ([9]; A. hydrophila, 10 h cultivation at 37° C.): 50 µg/mL; MIC ([10]; P. aeruginosa, 10 h cultivation at 37° C.): 50 µg/mL
PRT1137 (ESNECKMNPCKNNSTCTDLYKSYRCECTSGWTGQNCS; listed as Homo sapiens) | 25 µg/mL | 12.5 µg/mL | 12.5 µg/mL | 25 µg/mL | 50 µg/mL | 50 µg/mL | 12.5 µg/mL | 12.5 µg/mL | 50 µg/mL | 50 µg/mL | 25 µg/mL | – | – | – | – | – | – | – | – | – | –
PRT504 (CDCSGNVDPSEAGHCDSVTGECLKCLGNTDGAHCERCADGFYGDAVTAKNCRA; listed as Homo sapiens) | 12.5 µg/mL | – | – | – | – | – | – | – | – | – | – | 12.5 µg/mL | 50 µg/mL | 12.5 µg/mL | 25 µg/mL | 50 µg/mL | 50 µg/mL | 12.5 µg/mL | 50 µg/mL | 25 µg/mL | MIC against P. aeruginosa ([10]; 96-well plate, 37° C., 10 h): 12.5 µg/mL
PRT554 (CNCESDFTDGTCEDLTGRCYCRPNFSGERCDVCAEGFTGFPSCYPT; listed as Homo sapiens) | 12.5 µg/mL | – | – | – | – | – | – | – | – | – | – | 25 µg/mL | 50 µg/mL | 25 µg/mL | 50 µg/mL | 50 µg/mL | 25 µg/mL | 25 µg/mL | 12.5 µg/mL | 12.5 µg/mL | MIC against P. aeruginosa ([10]; 96-well plate, 37° C., 10 h): 12.5 µg/mL
PRT1091 (DVNECSSNPCQNGGTCENLPGNYTCHCPFDNLSRTFYGGRDCS; listed as Homo sapiens) | 12.5 µg/mL | 12.5 µg/mL | 25 µg/mL | 50 µg/mL | 25 µg/mL | 50 µg/mL | 12.5 µg/mL | 50 µg/mL | 25 µg/mL | 25 µg/mL | 12.5 µg/mL | – | – | – | – | – | – | – | – | – | –
